Experimental data taken from US20110152236A1 (SANOFI-AVENTIS, priority 2008, published 2011).

Key:
human CB1 receptor = biological target: T1, human CB1 receptor (Homo sapiens, UniProt P21554); assay: intracellular cyclic AMP test in U373MG cells (HTRF cAMP Dynamic Kit); assay type: cell-based; conditions: U373MG cells naturally expressing the human CB1 receptor; intracellular cyclic AMP; read-out: IC50
T1 construct: U373MG cells naturally expressing the human CB1 receptor; endogenous in cells; host or cells: U373MG cells
Method: The compounds according to the invention were the subject of pharmacological tests for determining the activity with respect to human cannabinoid CB1-type receptors. The efficacy of the compounds of formula (I) was determined in a functional test which measures cannabinoid CB1 receptor activity (intracellular cyclic AMP test). The test for detecting intracellular cyclic AMP in U373MG cells naturally expressing the human CB1 receptor was carried out as described in the following reference: Bouaboula et al., 1995, J. Biol. Chem. 270:13973-13980. The HTRF cAMP Dynamic Kit from CisBio was used to quantify the intracellular cyclic AMP. In this test, the IC50 values are between 0.001 μM and 2 μM.

cannabinoid CB1 receptor [1] = biological target: T2, cannabinoid CB1 receptor (Mus musculus, UniProt P47746); assay: model of inhibition of gastrointestinal transit induced by racemic CP55,940 in mice; assay type: in vivo; conditions: 1 mg/kg per os; 3 hours after administration of the product; CP55,940 0.15 mg/kg ip; male CD1 mice
T2 construct: from tissue; host or cells: whole animal (mice; male CD1 mice in the gastrointestinal transit model)
Method: The antagonistic activity of the compounds was also shown by means of the model of inhibition of gastrointestinal transit induced by racemic CP55,940 (1RS,3RS,4RS-3-[hydroxy-2-(1,1-dimethylheptyl)phenyl]-4-(3-hydroxypropyl)cyclohexan-1-ol) in mice, according to the method described by Rinaldi-Carmona et al., J. Pharmacol, Exp. Ther. 2004, 310, 905-914. Briefly, male CD1 mice receive the test product per os 30 minutes or 2 hours before administration of the racemic CP55,940 agonist (1RS,3RS,4RS-3-[hydroxy-2-(1,1-dimethylheptyl)phenyl]-4-(3-hydroxypropyl)cyclohexan-1-ol) (0.15 mg/kg ip in 10% Cremophor). After a further 30 minutes, the animals receive a charcoal bolus po. Thirty minutes later, the animals are euthanized (CO2/O2) and the intestine is dissected. The progression of the charcoal bolus in the intestine is expressed as percentage of the total length of the intestine.

cannabinoid CB1 receptor [2] = biological target: T2, cannabinoid CB1 receptor; assay: model of hypothermia induced by cannabinoid CB1 receptor agonist racemic CP55,940 in mice; assay type: in vivo; conditions: 3 mg/kg po, hypothermia induced by CP55,940 1.25 mg/kg
Method: Other tests consisting in measuring the in vivo activity of the compounds of the invention were carried out. The antagonist activity of said compounds was shown by means of the model of hypothermia induced by a cannabinoid CB1 receptor agonist (racemic CP55,940 (1RS,3RS,4RS)-3-[hydroxy-2-(1,1-dimethylheptyl)phenyl]-4-(3-hydroxypropypcyclohexan-1-ol) at a dose of 1.25 mg/kg, in mice, according to the method described by R. G. Pertwee in Marijuana 84, Harvey D. J. eds, Oxford IRL Press, 263-277 (1985).

T2 sequence (P47746 whole entry): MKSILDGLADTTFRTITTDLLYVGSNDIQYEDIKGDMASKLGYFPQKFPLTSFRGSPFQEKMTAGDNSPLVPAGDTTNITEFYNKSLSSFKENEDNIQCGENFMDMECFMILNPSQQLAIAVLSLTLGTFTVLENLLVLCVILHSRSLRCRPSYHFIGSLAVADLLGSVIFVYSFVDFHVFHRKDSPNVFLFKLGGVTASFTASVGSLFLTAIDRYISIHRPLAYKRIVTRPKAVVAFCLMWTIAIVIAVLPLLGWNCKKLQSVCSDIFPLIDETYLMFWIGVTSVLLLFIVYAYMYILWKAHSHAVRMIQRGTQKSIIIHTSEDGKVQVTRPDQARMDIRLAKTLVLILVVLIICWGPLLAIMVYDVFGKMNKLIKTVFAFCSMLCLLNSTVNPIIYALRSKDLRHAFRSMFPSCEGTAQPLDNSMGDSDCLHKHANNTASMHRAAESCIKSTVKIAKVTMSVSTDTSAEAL
T1 sequence (P21554 whole entry): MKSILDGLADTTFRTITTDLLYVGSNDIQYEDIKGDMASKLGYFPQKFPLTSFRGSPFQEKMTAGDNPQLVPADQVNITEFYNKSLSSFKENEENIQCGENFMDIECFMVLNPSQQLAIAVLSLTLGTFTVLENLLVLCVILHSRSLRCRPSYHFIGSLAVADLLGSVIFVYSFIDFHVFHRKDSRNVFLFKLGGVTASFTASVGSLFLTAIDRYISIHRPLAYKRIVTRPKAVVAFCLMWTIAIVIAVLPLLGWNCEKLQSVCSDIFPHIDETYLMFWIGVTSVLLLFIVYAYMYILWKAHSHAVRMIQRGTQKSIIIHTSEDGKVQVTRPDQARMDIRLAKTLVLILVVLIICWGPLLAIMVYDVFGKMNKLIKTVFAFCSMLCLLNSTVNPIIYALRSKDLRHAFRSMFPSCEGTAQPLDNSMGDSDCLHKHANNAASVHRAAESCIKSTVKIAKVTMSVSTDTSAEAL

Row | IC50 (human CB1 receptor) [nM] | percentages of inhibition (cannabinoid CB1 receptor [1]) [%] | melting point [°C] | percentage inhibition (cannabinoid CB1 receptor [2]) [%] | Compound
1 | 6 | 82 | 218 | 28 | CS(=O)(=O)N(c1cccc(C(=O)Nc2ccon2)c1)C1CN(C(c2ccc(Cl)cc2)c2ccc(Cl)cc2)C1 [Compound 5, 3-[{1-[bis(4-chlorophenyl)methyl]azetidin-3-yl}(methylsulphonyl)amino]-N-(isoxazol-3-yl)-benzamide]
2 | – | 68 | 202 | 32 | CS(=O)(=O)N(c1cccc(C(=O)Nc2ccccn2)c1)C1CN(C(c2ccc(Cl)cc2)c2ccc(Cl)cc2)C1 [Compound 7, 3-[{1-[Bis(4-chlorophenyl)methyl]azetidin-3-yl}(methylsulphonyl)amino]-N-(pyridin-2-yl)benzamide]
